Assay results published in PubChem BioAssay (NCI).
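Step 1: Grow cells in 96-well plates. Step 2: Expose to compound for 48 hours at 5 concentrations. Step 3: Interpolate endpoints linearly; if unreached, use highest concentration. GI50 marks 50% less growth. TGI: total growth inhibition.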

Experiments:
Test in all cases: growth of human tumour cells (NCI), 48 h
[1] = test system: OVCAR-8 ovarian
[2] = test system: NCI-H23 lung
[3] = test system: SW-620 colon
[4] = test system: LOX IMVI melanoma
[5] = test system: CCRF-CEM leukemia
[6] = test system: MCF7 breast
[7] = test system: SK-MEL-5 melanoma
[8] = test system: IGROV1 ovarian
[9] = test system: SF-268 CNS
[10] = test system: U251 CNS
[11] = test system: MOLT-4 leukemia
[12] = test system: SR leukemia
[13] = test system: RPMI-8226 leukemia
[14] = test system: PC-3 prostate
[15] = test system: MALME-3M melanoma
[16] = test system: OVCAR-3 ovarian
[17] = test system: A549 NSCLC
[18] = test system: K-562 leukemia
[19] = test system: A498 renal
[20] = test system: COLO 205 colon
[21] = test system: SK-MEL-28 melanoma
[22] = test system: HCT-15 colon
[23] = test system: HT29 colon
[24] = test system: NCI-H522 lung
[25] = test system: NCI-H226 lung
[26] = test system: OVCAR-4 ovarian
[27] = test system: UO-31 renal
[28] = test system: NCI-H460 lung
[29] = test system: UACC-257 melanoma
[30] = test system: T-47D breast
[31] = test system: MDA-MB-231 breast
[32] = test system: SF-295 CNS
[33] = test system: KM12 colon
[34] = test system: ACHN renal
[35] = test system: NCI/ADR-RES ovarian
[36] = test system: HCT-116 colon
[37] = test system: CAKI-1 renal
[38] = test system: M14 melanoma
[39] = test system: HOP-92 NSCLC
[40] = test system: EKVX NSCLC

## CCN1C(=O)N(CC)C2Nn3c(s/c(=C4\C(=O)N(C)c5ccccc54)c3=O)=NC21 (stereo not given)
[1]
  GI50: 4.3 µM
  TGI: > 100 µM
[2]
  GI50: 3.38 µM
  TGI: > 100 µM
[3]
  GI50: 1.52 µM
  TGI: > 100 µM
[4]
  GI50: 4.82 µM
  TGI: > 100 µM
[5]
  GI50: 3.3 µM
  TGI: > 100 µM
[6]
  GI50: 1.03 µM
  TGI: > 100 µM
[7]
  GI50: 4.61 µM
  TGI: > 100 µM
[8]
  GI50: 3.37 µM
  TGI: > 100 µM
[9]
  GI50: > 100 µM
  TGI: > 100 µM
[10]
  GI50: 4.21 µM
  TGI: > 100 µM
[11]
  GI50: 3.92 µM
  TGI: > 100 µM
[12]
  GI50: 0.978 µM
  TGI: > 100 µM
[13]
  GI50: 3.97 µM
  TGI: > 100 µM
[14]
  GI50: 3.52 µM
  TGI: > 100 µM
[15]
  GI50: 3.9 µM
  TGI: > 100 µM
[16]
  GI50: 1.99 µM
  TGI: > 100 µM
[17]
  GI50: 5.08 µM
  TGI: > 100 µM
[18]
  GI50: 0.727 µM
  TGI: > 100 µM
[19]
  GI50: 1.67 µM
  TGI: 5.68 µM
[20]
  GI50: 2.26 µM
  TGI: > 100 µM
[21]
  GI50: 6.45 µM
  TGI: > 100 µM
[22]
  GI50: 1.27 µM
  TGI: > 100 µM
[23]
  GI50: 2.33 µM
  TGI: > 100 µM
[24]
  GI50: 2.98 µM
  TGI: > 100 µM
[25]
  GI50: > 100 µM
  TGI: > 100 µM
[26]
  GI50: 1.98 µM
  TGI: > 100 µM
[27]
  GI50: 2.82 µM
  TGI: > 100 µM
[28]
  GI50: 3.35 µM
  TGI: > 100 µM
[29]
  GI50: 7.71 µM
  TGI: > 100 µM
[30]
  GI50: 3.14 µM
  TGI: > 100 µM
[31]
  GI50: 3.42 µM
  TGI: > 100 µM
[32]
  GI50: 2.83 µM
  TGI: > 100 µM
[33]
  GI50: 2.91 µM
  TGI: > 100 µM
[34]
  GI50: 3.42 µM
  TGI: > 100 µM
[35]
  GI50: 1.95 µM
  TGI: > 100 µM
[36]
  GI50: 1.95 µM
  TGI: > 100 µM
[37]
  GI50: 1.05 µM
  TGI: > 100 µM
[38]
  GI50: 2.41 µM
  TGI: > 100 µM
[39]
  GI50: 69.5 µM
  TGI: > 100 µM
[40]
  GI50: 2.25 µM
  TGI: > 100 µM
